Experimental data taken from ChEMBL document CHEMBL1909046, “DrugMatrix in vitro pharmacology data”.
Where a SMILES comes first, the peptide text is derived from it. Bridges are numbered along the chain shown (N, C = ends). [ ]: non-standard residue; d: D form. The star is where a group is joined. Threoninol(2S,3R) = C[C@@H](O)[C@H](CO)N*

Experiments:
[1] = biological target: 5-hydroxytryptamine receptor 4 (Cavia porcellus, UniProt O70528); format: cell membranes, Dunkin-Hartley, Striatum, Membrane; further: in other assays of this panel Not Active means under 50% inhibition at 10 µM
Sequence of 5-hydroxytryptamine receptor 4 (O70528 whole entry): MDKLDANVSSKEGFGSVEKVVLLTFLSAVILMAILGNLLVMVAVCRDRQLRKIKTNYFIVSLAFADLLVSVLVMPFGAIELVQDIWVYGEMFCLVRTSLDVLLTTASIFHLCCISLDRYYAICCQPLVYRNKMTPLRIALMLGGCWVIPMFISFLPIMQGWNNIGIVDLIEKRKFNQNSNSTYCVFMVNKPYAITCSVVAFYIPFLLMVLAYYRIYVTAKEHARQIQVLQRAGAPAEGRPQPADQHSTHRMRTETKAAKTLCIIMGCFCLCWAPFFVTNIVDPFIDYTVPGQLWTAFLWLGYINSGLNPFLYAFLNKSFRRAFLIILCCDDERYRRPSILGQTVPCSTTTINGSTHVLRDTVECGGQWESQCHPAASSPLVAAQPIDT

[2] = biological target: Voltage-gated inwardly rectifying potassium channel KCNH2 (Homo sapiens, UniProt Q12809); settings: hek293; further: in other assays of this panel Not Active means under 50% inhibition at 10 µM
Sequence of Voltage-gated inwardly rectifying potassium channel KCNH2 (Q12809 whole entry): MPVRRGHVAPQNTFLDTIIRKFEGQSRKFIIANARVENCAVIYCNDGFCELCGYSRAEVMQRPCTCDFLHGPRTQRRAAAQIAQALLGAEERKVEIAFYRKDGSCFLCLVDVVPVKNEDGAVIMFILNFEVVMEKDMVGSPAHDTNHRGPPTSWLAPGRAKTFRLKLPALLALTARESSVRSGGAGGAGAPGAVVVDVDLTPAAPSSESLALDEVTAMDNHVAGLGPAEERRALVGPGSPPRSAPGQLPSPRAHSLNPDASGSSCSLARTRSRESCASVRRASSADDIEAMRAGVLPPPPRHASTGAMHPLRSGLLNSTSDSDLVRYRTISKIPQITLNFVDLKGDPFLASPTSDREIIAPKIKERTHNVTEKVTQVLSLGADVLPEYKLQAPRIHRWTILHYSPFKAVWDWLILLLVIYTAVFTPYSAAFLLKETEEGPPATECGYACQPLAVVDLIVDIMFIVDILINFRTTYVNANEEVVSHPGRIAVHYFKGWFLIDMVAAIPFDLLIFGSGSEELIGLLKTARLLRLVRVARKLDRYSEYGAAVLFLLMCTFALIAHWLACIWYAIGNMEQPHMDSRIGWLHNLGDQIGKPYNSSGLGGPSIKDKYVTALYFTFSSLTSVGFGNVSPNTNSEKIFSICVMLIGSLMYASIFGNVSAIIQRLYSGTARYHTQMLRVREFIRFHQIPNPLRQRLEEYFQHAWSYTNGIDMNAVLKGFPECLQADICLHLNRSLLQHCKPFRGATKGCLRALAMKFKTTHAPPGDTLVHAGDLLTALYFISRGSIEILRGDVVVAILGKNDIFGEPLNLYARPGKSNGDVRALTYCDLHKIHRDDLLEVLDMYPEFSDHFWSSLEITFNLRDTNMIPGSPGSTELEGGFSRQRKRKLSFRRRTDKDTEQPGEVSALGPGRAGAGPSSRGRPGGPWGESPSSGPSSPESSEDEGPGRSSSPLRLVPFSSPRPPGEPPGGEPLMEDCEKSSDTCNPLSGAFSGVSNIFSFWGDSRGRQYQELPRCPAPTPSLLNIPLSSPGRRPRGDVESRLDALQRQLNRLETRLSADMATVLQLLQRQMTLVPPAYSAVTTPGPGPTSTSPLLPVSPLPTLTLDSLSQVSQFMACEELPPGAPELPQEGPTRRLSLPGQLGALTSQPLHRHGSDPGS

[3] = biological target: T1, Angiotensin-converting enzyme (Oryctolagus cuniculus, UniProt P12822); format: tissue-based, Lung;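 further: enzymatic inhibition of angiotensin-converting enzyme measured with FAPGG as the substrate; in other assays of this panel Not Active means under 50% inhibition at 10 µM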
T1 sequence (P12822 whole entry): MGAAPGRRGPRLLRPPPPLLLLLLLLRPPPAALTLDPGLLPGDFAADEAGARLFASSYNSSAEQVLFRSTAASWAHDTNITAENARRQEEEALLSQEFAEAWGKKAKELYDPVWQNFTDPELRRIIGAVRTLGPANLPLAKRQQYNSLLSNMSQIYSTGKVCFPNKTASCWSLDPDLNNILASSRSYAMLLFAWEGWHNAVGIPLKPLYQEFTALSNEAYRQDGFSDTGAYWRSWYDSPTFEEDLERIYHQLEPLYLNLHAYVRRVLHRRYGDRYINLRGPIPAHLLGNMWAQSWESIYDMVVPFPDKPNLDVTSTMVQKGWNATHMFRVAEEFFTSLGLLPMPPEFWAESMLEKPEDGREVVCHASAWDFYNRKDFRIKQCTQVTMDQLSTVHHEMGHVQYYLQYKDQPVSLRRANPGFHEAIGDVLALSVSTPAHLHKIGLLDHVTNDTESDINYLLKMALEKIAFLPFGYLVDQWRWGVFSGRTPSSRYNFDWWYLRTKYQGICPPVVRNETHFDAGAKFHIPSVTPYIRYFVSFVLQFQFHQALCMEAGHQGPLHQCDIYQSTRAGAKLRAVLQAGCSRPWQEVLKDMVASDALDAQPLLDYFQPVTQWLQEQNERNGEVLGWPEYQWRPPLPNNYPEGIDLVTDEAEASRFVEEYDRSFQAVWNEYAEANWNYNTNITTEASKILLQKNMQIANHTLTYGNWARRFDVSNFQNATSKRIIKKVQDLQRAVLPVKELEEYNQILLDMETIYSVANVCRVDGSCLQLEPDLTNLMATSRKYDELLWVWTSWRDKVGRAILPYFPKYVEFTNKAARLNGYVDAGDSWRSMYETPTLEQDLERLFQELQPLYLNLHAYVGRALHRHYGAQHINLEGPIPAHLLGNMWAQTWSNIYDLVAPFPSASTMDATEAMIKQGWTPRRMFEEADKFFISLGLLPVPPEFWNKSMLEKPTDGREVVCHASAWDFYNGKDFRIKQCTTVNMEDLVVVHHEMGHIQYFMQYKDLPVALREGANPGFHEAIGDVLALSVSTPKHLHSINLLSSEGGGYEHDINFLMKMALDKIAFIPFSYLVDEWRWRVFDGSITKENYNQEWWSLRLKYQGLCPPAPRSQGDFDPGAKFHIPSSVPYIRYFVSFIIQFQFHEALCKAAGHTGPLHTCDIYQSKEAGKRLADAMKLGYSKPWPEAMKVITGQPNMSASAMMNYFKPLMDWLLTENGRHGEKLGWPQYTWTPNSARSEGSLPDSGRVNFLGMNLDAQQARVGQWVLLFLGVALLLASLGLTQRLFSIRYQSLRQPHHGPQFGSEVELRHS

Adenosine receptor A1 = biological target: T2, Adenosine receptor A1 (Homo sapiens, UniProt P30542); format: cell membranes, Membrane; settings: cho;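 further: radioligand binding assay at the adenosine A1 receptor, with DPCPX serving as the labelled ligand; in other assays of this panel Not Active means under 50% inhibition at 10 µM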
T2 sequence (P30542 whole entry): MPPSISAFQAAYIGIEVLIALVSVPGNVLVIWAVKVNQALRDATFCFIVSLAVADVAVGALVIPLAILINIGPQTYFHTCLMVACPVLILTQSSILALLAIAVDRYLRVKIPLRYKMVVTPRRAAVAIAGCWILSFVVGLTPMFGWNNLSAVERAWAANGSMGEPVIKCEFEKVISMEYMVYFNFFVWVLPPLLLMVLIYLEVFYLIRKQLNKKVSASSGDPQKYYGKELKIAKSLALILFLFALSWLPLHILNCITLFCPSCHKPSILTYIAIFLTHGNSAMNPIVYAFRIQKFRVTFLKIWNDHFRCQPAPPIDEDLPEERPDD

Cytochrome P450 2A6 = biological target: T3, Cytochrome P450 2A6 (Homo sapiens, UniProt P11509); settings: bti-tn-5b1-4; further: in other assays of this panel Not Active means under 50% inhibition at 10 µM
T3 sequence (P11509 whole entry): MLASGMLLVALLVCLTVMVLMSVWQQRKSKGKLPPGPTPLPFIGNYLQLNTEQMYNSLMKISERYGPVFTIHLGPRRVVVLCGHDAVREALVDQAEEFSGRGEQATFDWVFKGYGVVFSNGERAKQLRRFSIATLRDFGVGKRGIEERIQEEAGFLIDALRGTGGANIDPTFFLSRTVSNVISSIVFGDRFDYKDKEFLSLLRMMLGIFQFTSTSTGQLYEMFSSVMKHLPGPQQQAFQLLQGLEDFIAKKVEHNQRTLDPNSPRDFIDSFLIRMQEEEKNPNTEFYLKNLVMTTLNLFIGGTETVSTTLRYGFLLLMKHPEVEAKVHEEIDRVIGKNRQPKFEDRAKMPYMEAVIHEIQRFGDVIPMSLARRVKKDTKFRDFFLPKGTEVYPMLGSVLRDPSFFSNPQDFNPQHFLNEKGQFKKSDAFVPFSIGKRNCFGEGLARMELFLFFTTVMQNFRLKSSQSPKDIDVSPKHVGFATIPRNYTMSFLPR

[4] = biological target: T4, Type-2 angiotensin II receptor (Homo sapiens, UniProt P50052); format: cell-based; settings: cho-k1; further: in other assays of this panel Not Active means under 50% inhibition at 10 µM
T4 sequence (P50052 whole entry): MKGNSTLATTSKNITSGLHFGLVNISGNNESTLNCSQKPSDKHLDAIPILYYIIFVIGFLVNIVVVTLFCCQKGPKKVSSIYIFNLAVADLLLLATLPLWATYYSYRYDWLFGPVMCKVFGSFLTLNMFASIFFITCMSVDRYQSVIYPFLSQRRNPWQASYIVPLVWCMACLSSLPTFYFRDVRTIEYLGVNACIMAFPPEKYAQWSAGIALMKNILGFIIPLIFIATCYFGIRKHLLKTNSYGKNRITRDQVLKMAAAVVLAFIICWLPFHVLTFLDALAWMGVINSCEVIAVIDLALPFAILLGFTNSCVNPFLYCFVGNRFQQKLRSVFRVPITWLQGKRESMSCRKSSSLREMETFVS

[5] = DRUGMATRIX: Glutamate, AMPA radioligand binding (ligand: [3H] AMPA); format: cell membranes, Rattus norvegicus, Wistar, Cerebral cortex, Membrane; settings: Not Active = under 50% inhibition at 10 µM
Histamine H2 receptor = Histamine H2 receptor (Homo sapiens, UniProt P25021); format: cell membranes, CHO-K1, Membrane; settings: cho-k1; further: in other assays of this panel Not Active means under 50% inhibition at 10 µM
Sequence of Histamine H2 receptor (P25021 whole entry): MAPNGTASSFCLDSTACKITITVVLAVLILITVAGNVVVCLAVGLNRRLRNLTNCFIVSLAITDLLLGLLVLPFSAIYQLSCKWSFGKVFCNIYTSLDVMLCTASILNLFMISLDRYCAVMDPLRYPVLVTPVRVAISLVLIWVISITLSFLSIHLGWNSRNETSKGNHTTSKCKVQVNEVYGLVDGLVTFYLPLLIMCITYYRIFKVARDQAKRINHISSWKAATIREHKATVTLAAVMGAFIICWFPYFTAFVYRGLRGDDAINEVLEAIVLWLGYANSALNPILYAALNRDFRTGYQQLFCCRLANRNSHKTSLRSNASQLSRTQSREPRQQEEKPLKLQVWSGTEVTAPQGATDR

COc1ccccc1C(=O)N1CCC(Cc2ccccc2)CC1
Not Active: IC50 [1] | IC50 [2] | Ki [2] | IC50 [3] | IC50 (Adenosine receptor A1) | IC50 (Cytochrome P450 2A6) | Ki (Cytochrome P450 2A6) | IC50 [4] | IC50 [5] | Ki [5] | IC50 (Histamine H2 receptor)

Cc1ccccc1C(=O)N1CCC(Cc2ccccc2)CC1
Not Active: IC50 [1] | IC50 [2] | Ki [2] | IC50 [3] | IC50 (Adenosine receptor A1) | IC50 (Cytochrome P450 2A6) | Ki (Cytochrome P450 2A6) | IC50 [4] | IC50 [5] | Ki [5] | IC50 (Histamine H2 receptor)

O=C1CC[C@H](N2C(=O)c3ccccc3C2=O)C(=O)N1
Not Active: IC50 [1] | IC50 [2] | Ki [2] | IC50 [3] | IC50 (Adenosine receptor A1) | IC50 (Cytochrome P450 2A6) | Ki (Cytochrome P450 2A6) | IC50 [4] | IC50 [5] | Ki [5] | IC50 (Histamine H2 receptor)

N=C(Nc1ccccc1)Nc1ccccc1
Not Active: IC50 [1] | IC50 [3] | IC50 (Adenosine receptor A1) | IC50 (Cytochrome P450 2A6) | Ki (Cytochrome P450 2A6) | IC50 [4] | IC50 [5] | Ki [5] | IC50 (Histamine H2 receptor)

C[C@@H](O)[C@H](CO)NC(=O)[C@@H]1CSSC[C@H](NC(=O)[C@H](N)Cc2ccccc2)C(=O)N[C@@H](Cc2ccccc2)C(=O)N[C@H](Cc2c[nH]c3ccccc23)C(=O)N[C@@H](CCCCN)C(=O)N[C@@H]([C@@H](C)O)C(=O)N1 (H-[dF]CF[dW]KTC-{Threoninol(2S,3R)}; disulfide 2-7)
Not Active: IC50 [1] | IC50 [2] | Ki [2] | IC50 [3] | IC50 (Adenosine receptor A1) | IC50 (Cytochrome P450 2A6) | Ki (Cytochrome P450 2A6) | IC50 [4] | IC50 [5] | Ki [5] | IC50 (Histamine H2 receptor)

S=C=Nc1cccc2ccccc12 [1-NAPHTHYLISOTHIOCYANATE]
Not Active: IC50 [1] | IC50 [2] | Ki [2] | IC50 [3] | IC50 (Adenosine receptor A1) | IC50 (Cytochrome P450 2A6) | Ki (Cytochrome P450 2A6) | IC50 [4] | IC50 [5] | Ki [5] | IC50 (Histamine H2 receptor)

C[C@](O)(CS(=O)(=O)c1ccc(F)cc1)C(=O)Nc1ccc(C#N)c(C(F)(F)F)c1 [(R)-BICALUTAMIDE]
Not Active: IC50 [1] | IC50 [2] | Ki [2] | IC50 [3] | IC50 (Adenosine receptor A1) | IC50 (Cytochrome P450 2A6) | Ki (Cytochrome P450 2A6) | IC50 [4] | IC50 [5] | Ki [5] | IC50 (Histamine H2 receptor)

O=NN(CCCl)C(=O)NCCCl [CARMUSTINE]
Not Active: IC50 [1] | IC50 [2] | Ki [2] | IC50 [3] | IC50 (Adenosine receptor A1) | IC50 [4] | IC50 [5] | Ki [5] | IC50 (Histamine H2 receptor)

CC1=C(C(=O)O)N2C(=O)[C@@H](NC(=O)[C@H](N)c3ccccc3)[C@H]2SC1 [CEPHALEXIN ANHYDROUS]
Not Active: IC50 [1] | IC50 [3] | IC50 (Adenosine receptor A1) | IC50 (Cytochrome P450 2A6) | Ki (Cytochrome P450 2A6) | IC50 [4] | IC50 [5] | Ki [5] | IC50 (Histamine H2 receptor)

O=C(N[C@H](CO)[C@H](O)c1ccc([N+](=O)[O-])cc1)C(Cl)Cl [CHLORAMPHENICOL]
Not Active: IC50 [1] | IC50 [3] | IC50 (Adenosine receptor A1) | IC50 [4] | IC50 [5] | Ki [5] | IC50 (Histamine H2 receptor)

C[C@@H]1C[C@@H]([C@H](O)CC2CC(=O)NC(=O)C2)C(=O)[C@@H](C)C1 [CYCLOHEXIMIDE]
Not Active: IC50 [1] | IC50 [2] | Ki [2] | IC50 [3] | IC50 (Adenosine receptor A1) | IC50 [4] | IC50 [5] | Ki [5] | IC50 (Histamine H2 receptor)

C/C=C/C[C@@H](C)[C@@H](O)[C@H]1C(=O)N[C@@H](CC)C(=O)N(C)CC(=O)N(C)[C@@H](CC(C)C)C(=O)N[C@@H](C(C)C)C(=O)N(C)[C@@H](CC(C)C)C(=O)N[C@@H](C)C(=O)N[C@H](C)C(=O)N(C)[C@@H](CC(C)C)C(=O)N(C)[C@@H](CC(C)C)C(=O)N(C)[C@@H](C(C)C)C(=O)N1C [CYCLOSPORINE]
Not Active: IC50 [1] | IC50 [3] | IC50 (Adenosine receptor A1) | IC50 [4] | IC50 [5] | Ki [5] | IC50 (Histamine H2 receptor)

C[C@]12CC[C@@H]3c4ccc(O)cc4CC[C@H]3[C@@H]1CC[C@@H]2O [ESTRADIOL]
Not Active: IC50 [1] | IC50 [3] | IC50 (Adenosine receptor A1) | IC50 (Cytochrome P450 2A6) | Ki (Cytochrome P450 2A6) | IC50 [4] | IC50 [5] | Ki [5] | IC50 (Histamine H2 receptor)

NC(=O)NO [HYDROXYUREA]
Not Active: IC50 [1] | IC50 [2] | Ki [2] | IC50 [3] | IC50 (Adenosine receptor A1) | IC50 [4] | IC50 [5] | Ki [5] | IC50 (Histamine H2 receptor)

COc1ccc2cc([C@H](C)C(=O)O)ccc2c1 [NAPROXEN]
Not Active: IC50 [1] | IC50 [3] | IC50 (Adenosine receptor A1) | IC50 [4] | IC50 [5] | Ki [5] | IC50 (Histamine H2 receptor)

COC(=O)C1=C(C)NC(C)=C(C(=O)OCC(C)C)C1c1ccccc1[N+](=O)[O-] (configuration not stated) [NISOLDIPINE]
Not Active: IC50 [1] | IC50 [3] | IC50 (Adenosine receptor A1) | IC50 (Cytochrome P450 2A6) | Ki (Cytochrome P450 2A6) | IC50 [4] | IC50 [5] | Ki [5] | IC50 (Histamine H2 receptor)

CCn1cc(C(=O)O)c(=O)c2cc(F)c(N3CCN(C)CC3)cc21 [PEFLOXACIN]
Not Active: IC50 [1] | IC50 [3] | IC50 (Adenosine receptor A1) | IC50 [4] | IC50 [5] | Ki [5] | IC50 (Histamine H2 receptor)
